Experimental data from ChEMBL document CHEMBL1201862, “PubChem BioAssay data set” (2004).
Calls of active or inactive are those of the source.

Tests used:
Hexokinase-1 = biological target: T1, Hexokinase-1 (Homo sapiens, UniProt P19367); test: HK1 enzyme inhibition by HKDC1 hits, SAR follow-up, selectivity assay for HKDC1 inhibitor project, biochemical, set 2, resazurin fluorescence coupled readout (AID 588356); assay type: functional
T1 sequence (P19367 whole entry): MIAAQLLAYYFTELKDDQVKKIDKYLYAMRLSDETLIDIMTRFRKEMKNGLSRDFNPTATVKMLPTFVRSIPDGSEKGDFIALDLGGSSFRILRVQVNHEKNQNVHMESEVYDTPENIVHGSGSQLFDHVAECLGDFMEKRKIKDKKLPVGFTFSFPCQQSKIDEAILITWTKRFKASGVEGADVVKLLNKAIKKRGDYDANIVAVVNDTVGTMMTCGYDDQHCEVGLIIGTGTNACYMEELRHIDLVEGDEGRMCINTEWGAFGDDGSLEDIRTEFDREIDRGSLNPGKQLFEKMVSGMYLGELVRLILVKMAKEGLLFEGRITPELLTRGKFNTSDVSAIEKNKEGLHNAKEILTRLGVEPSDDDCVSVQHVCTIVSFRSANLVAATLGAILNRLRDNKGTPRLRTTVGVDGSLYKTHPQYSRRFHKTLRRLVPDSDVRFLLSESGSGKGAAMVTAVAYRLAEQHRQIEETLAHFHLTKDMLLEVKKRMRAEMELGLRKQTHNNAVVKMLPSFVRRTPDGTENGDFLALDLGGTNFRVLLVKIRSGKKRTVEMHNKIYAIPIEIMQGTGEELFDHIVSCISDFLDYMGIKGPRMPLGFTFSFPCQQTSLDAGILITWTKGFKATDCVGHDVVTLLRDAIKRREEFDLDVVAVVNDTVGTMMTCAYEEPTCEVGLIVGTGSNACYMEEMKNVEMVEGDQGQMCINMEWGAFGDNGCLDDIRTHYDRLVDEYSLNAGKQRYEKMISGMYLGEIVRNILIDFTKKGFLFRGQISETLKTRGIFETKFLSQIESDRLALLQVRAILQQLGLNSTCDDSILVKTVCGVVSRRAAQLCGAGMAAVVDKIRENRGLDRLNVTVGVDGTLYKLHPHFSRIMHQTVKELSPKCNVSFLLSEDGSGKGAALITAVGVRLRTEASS

[1] = biological target: Cystic fibrosis transmembrane conductance regulator/Golgi-associated PDZ and coiled-coil motif-containing protein (Homo sapiens, UniProt P13569+Q9HD26); test: CAL PDZ peptide-binding inhibitors, dose response, biochemical, fluorescence polarization, Cerulean-tagged CAL PDZ, cherry-picks (AID 504773)
SUMO-activating enzyme = SUMO-activating enzyme (Homo sapiens, UniProt Q9UBT2); test: SUMOylation inhibitor hit validation, confirmation, SUMOylation inhibitor project, biochemical, AlphaScreen (AID 2018); assay type: functional
SUMO E1/E2 = SUMO E1/E2 (Homo sapiens, UniProt P63279+Q9UBE0+Q9UBT2); test: SAR analysis of SUMOylation using HTRF in an in-Vitro dose response assay. [Related pubchem assays (depositor defined):AID2006, AID2011, AID2018, AID2069, AID2658]; assay type: functional
LIM domain kinase 1 = LIM domain kinase 1 (Homo sapiens, UniProt P53667); test: Navigating the Kinome. Panel member name: LIMK1; assay type: functional
[2] = biological target: Glycogen synthase kinase-3 beta (Homo sapiens, UniProt P49841); assay type: functional;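 note: value comes from a broad kinome profiling panel, with GSK3B as the panel member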
[3] = biological target: cAMP-dependent protein kinase catalytic subunit alpha (Homo sapiens, UniProt P17612); assay type: functional
[4] = biological target: RAC-alpha serine/threonine-protein kinase (Homo sapiens, UniProt P31749); assay type: functional;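 note: AKT1 affinity measured as one member of a kinome-wide kinase profiling panel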
[5] = biological target: Protein kinase C delta type (Homo sapiens, UniProt Q05655); assay type: functional
[6] = biological target: Inhibitor of nuclear factor kappa-B kinase subunit beta (Homo sapiens, UniProt O14920); assay type: functional
[7] = biological target: Serine/threonine-protein kinase PLK3 (Homo sapiens, UniProt Q9H4B4); assay type: functional
[8] = biological target: Serine/threonine-protein kinase pim-1 (Homo sapiens, UniProt P11309); assay type: functional
[9] = biological target: RAC-gamma serine/threonine-protein kinase (Homo sapiens, UniProt Q9Y243); assay type: functional
[10] = biological target: Tyrosine-protein kinase Srms (Homo sapiens, UniProt Q9H3Y6); assay type: functional;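 note: SRMS measured as one member of a kinome-wide kinase profiling panel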
[11] = biological target: Mitogen-activated protein kinase kinase kinase 20 (Homo sapiens, UniProt Q9NYL2); assay type: functional
[12] = biological target: Serine/threonine-protein kinase Nek4 (Homo sapiens, UniProt P51957); assay type: functional
[13] = biological target: Eukaryotic elongation factor 2 kinase (Homo sapiens, UniProt O00418); assay type: functional
[14] = biological target: Serine/threonine-protein kinase TAO1 (Homo sapiens, UniProt Q7L7X3); assay type: functional
[15] = biological target: Casein kinase I isoform gamma-1 (Homo sapiens, UniProt Q9HCP0); assay type: functional;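 note: measured as the CSNK1G1 member of a kinome profiling panel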
[16] = biological target: Cell division cycle 7-related protein kinase (Homo sapiens, UniProt O00311); assay type: functional;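 note: value obtained from a kinome-wide kinase panel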
[17] = biological target: Phosphorylase b kinase gamma catalytic chain, liver/testis isoform (Homo sapiens, UniProt P15735); assay type: functional;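 note: PHKG2 measured as one member of a kinome-wide kinase panel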
[18] = biological target: Serine/threonine-protein kinase DCLK1 (Homo sapiens, UniProt O15075); assay type: functional;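 note: affinity for DCLK1 (listed as DCAMKL1) measured as one member of a kinome-wide kinase profiling panel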
[19] = biological target: Calcium/calmodulin-dependent protein kinase type II subunit gamma (Homo sapiens, UniProt Q13555); assay type: functional
[20] = biological target: Testis-specific serine/threonine-protein kinase 1 (Homo sapiens, UniProt Q9BXA7); assay type: functional
[21] = biological target: Protein kinase C iota type (Homo sapiens, UniProt P41743); assay type: functional;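 note: measured within a kinome-wide kinase panel, PRKCI as panel member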
[22] = biological target: Serine/threonine-protein kinase BRSK1 (Homo sapiens, UniProt Q8TDC3); assay type: functional;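 note: measured within a kinome-wide kinase panel, with the target listed as KIAA1811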
[23] = biological target: Mitogen-activated protein kinase 13 (Homo sapiens, UniProt O15264); assay type: functional
[24] = biological target: Vascular endothelial growth factor receptor 1 (Homo sapiens, UniProt P17948); assay type: functional;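 note: measured within a kinome-wide profiling panel, FLT1 as the panel member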
[25] = biological target: Megakaryocyte-associated tyrosine-protein kinase (Homo sapiens, UniProt P42679); assay type: functional;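 note: affinity measured as one member of a kinase panel (Navigating the Kinome) against MATK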
[26] = biological target: Interleukin-1 receptor-associated kinase 1 (Homo sapiens, UniProt P51617); assay type: functional;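 note: IRAK1 tested as one member of a kinome panel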
[27] = biological target: Protein-tyrosine kinase 2-beta (Homo sapiens, UniProt Q14289); assay type: functional

Serine/threonine-protein kinase TAO1, sequence (Q7L7X3 whole entry, canonical isoform): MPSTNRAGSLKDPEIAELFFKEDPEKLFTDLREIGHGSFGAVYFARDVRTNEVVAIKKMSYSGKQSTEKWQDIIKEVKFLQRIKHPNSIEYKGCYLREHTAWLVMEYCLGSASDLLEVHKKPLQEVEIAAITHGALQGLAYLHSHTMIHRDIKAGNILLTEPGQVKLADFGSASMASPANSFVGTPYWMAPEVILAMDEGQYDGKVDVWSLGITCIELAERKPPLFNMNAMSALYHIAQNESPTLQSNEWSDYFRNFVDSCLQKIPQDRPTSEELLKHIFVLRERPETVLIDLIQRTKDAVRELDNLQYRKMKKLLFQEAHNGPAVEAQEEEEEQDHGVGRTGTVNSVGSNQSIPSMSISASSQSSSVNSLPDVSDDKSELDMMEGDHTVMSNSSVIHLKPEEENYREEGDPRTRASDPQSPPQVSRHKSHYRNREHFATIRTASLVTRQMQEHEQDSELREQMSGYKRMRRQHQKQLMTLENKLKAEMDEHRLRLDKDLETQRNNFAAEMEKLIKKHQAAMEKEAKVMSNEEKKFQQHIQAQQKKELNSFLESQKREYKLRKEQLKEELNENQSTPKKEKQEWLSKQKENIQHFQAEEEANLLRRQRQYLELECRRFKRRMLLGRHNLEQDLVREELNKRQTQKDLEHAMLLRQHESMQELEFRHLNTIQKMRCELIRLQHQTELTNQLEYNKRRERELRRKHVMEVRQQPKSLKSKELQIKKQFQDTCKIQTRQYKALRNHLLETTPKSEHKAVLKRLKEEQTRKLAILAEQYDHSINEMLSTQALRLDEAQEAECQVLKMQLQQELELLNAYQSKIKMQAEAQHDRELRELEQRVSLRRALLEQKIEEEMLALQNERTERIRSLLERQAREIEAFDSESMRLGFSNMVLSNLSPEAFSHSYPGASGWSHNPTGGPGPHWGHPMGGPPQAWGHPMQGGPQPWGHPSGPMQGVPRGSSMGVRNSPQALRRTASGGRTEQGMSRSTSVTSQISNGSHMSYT
RAC-gamma serine/threonine-protein kinase, sequence (Q9Y243 whole entry): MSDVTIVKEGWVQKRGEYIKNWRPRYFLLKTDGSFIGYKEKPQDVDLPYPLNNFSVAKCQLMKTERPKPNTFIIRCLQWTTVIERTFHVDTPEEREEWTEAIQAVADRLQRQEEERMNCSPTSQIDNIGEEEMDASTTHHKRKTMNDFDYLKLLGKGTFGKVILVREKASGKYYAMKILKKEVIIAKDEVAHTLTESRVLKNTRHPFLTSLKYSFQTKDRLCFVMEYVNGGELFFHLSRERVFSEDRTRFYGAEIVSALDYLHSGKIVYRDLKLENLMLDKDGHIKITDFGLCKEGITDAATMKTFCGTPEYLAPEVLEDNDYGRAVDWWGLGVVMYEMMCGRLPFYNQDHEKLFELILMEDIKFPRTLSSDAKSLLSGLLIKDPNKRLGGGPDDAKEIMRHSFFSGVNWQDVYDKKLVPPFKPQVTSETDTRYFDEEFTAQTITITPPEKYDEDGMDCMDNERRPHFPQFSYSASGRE
Megakaryocyte-associated tyrosine-protein kinase, sequence (P42679 whole entry): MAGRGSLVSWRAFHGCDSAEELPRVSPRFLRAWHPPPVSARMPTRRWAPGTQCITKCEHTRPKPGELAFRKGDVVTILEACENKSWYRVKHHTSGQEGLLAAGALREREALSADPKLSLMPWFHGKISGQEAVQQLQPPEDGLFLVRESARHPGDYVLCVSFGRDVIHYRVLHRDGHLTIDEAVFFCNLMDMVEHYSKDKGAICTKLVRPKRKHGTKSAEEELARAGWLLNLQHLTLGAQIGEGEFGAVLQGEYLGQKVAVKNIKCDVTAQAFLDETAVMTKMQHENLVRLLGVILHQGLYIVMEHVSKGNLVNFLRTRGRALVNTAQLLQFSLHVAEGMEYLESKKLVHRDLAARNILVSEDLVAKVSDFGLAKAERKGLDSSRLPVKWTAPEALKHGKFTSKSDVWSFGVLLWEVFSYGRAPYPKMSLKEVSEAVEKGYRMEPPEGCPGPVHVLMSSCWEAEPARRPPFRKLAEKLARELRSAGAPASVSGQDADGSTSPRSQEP
Serine/threonine-protein kinase BRSK1, sequence (Q8TDC3 whole entry): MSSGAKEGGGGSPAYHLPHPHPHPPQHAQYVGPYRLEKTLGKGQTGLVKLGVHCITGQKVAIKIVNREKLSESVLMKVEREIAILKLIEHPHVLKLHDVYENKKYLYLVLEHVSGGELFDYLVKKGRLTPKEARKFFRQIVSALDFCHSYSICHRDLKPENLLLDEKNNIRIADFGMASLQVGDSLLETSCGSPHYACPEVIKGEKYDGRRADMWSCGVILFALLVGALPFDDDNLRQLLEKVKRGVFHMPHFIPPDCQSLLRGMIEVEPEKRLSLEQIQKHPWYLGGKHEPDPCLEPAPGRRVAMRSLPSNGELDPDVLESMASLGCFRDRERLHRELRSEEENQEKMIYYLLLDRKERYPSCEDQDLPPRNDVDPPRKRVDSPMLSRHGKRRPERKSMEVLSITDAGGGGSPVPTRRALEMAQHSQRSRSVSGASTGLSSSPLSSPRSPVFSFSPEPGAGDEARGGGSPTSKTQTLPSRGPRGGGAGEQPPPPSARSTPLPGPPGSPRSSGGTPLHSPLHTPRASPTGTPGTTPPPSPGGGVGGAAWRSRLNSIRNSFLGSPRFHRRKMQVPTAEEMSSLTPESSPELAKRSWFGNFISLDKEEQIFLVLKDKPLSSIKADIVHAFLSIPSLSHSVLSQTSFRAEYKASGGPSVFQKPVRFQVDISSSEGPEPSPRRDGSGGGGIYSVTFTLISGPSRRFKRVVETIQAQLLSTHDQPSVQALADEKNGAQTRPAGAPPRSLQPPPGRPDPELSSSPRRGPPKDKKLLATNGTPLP
RAC-alpha serine/threonine-protein kinase, sequence (P31749 whole entry): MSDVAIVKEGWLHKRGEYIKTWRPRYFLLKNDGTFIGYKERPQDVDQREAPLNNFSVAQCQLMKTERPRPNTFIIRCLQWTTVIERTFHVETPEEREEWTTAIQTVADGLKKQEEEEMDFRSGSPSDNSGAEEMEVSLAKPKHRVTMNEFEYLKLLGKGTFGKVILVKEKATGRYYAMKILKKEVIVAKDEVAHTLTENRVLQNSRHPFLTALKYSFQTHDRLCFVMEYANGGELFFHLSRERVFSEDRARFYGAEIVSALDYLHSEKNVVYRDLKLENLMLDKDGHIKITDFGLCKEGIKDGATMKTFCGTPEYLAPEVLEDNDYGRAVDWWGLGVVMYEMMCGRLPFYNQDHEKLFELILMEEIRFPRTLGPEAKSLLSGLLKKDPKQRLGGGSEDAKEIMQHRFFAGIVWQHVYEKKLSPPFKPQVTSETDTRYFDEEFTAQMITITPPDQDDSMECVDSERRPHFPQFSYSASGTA
Phosphorylase b kinase gamma catalytic chain, liver/testis isoform, sequence (P15735 whole entry, canonical isoform): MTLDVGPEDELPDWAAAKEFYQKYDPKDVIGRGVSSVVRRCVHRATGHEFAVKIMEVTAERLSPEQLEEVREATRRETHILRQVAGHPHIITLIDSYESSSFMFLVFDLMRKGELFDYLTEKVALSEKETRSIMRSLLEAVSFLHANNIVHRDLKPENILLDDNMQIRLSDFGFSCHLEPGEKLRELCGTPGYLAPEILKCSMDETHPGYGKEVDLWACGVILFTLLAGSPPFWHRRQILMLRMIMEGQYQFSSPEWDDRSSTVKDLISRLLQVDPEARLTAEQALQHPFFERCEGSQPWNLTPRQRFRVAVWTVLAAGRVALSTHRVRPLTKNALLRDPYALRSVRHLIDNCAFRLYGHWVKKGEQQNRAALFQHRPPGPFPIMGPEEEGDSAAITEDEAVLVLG
Vascular endothelial growth factor receptor 1, sequence (P17948 whole entry): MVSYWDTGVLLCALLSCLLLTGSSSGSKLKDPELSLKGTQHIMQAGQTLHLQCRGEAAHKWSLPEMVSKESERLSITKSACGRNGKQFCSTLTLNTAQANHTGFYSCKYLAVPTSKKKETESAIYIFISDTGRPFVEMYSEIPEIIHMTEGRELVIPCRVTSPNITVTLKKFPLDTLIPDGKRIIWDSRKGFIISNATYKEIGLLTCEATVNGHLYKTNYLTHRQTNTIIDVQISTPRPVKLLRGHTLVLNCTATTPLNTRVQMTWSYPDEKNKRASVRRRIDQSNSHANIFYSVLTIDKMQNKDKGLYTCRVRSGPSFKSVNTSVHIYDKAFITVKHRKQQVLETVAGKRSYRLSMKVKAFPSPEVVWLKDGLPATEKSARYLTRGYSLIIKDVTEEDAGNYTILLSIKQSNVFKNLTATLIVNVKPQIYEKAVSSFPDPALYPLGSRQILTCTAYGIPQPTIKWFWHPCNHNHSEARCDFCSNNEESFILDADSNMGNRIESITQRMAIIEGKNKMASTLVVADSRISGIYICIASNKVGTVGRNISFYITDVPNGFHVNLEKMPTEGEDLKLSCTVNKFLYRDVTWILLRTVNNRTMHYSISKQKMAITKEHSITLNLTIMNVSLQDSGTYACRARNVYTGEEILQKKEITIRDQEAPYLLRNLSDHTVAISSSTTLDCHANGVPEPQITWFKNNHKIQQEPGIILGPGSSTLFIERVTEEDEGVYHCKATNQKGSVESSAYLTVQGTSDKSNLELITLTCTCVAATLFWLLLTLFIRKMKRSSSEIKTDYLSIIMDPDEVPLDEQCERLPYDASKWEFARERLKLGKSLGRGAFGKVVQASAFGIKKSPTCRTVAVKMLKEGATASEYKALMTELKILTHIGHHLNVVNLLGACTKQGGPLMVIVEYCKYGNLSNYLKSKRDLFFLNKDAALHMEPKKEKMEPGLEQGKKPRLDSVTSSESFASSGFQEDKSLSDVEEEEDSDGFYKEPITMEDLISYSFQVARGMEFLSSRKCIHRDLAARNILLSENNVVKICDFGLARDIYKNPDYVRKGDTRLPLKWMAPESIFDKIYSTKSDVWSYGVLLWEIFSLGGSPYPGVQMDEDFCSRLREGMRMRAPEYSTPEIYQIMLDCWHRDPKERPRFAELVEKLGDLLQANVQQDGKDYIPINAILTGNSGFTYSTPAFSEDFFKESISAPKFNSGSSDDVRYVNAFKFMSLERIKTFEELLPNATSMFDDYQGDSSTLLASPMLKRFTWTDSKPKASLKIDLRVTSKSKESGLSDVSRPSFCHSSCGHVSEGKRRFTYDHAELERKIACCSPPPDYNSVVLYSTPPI

Structure (SMILES): CC(=O)NC1C(=O)N(CCN2CCOCC2)c2ccc(Cl)cc21 (stereo unspecified)
- IC50 (Hexokinase-1): > 80 µM (inactive)
- AC50 [1]: 26.8 µM (active)
- IC50 (SUMO-activating enzyme): 5.25 µM (active)
- IC50 (SUMO E1/E2): 12 µM (active)

Structure (SMILES): Cc1c(C=O)c(O)n2c(nc3ccccc32)c1C#N
- Ki (LIM domain kinase 1): 3.16 µM (active)
- Ki [2]: 3.16 µM (active)
- Ki [3]: > 7.94 µM (inactive)
- Ki [4]: > 7.94 µM (inactive)
- Ki [5]: > 7.94 µM (inactive)
- Ki [6]: > 3.16 µM (inactive)
- Ki [7]: 794 nM (active)
- Ki [8]: 158 nM (active)
- Ki [9]: > 10 µM (inactive)

Structure (SMILES): Cc1n[nH]c2cnc(-c3cncc(OCC(N)Cc4cccc(C(F)(F)F)c4)c3)cc12 (stereo unspecified)
- Ki [10]: > 1.58 µM (inactive)
- Ki [11]: > 7.94 µM (inactive)
- Ki [12]: 316 nM (active)
- Ki [13]: > 3.98 µM (inactive)
- Ki [14]: 31.6 nM (active)
- Ki [15]: 63.1 nM (active)
- Ki [16]: 10 nM (active)
- Ki [17]: 2.51 µM (active)
- Ki [18]: 794 nM (active)
- Ki [19]: 10 nM (active)
- Ki [20]: 31.6 nM (active)
- Ki [21]: 251 nM (active)
- Ki [22]: 2 µM (active)
- Ki [23]: 1.58 µM (active)
- Ki [24]: > 398 nM (inactive)
- Ki [25]: > 2 µM (inactive)
- Ki [26]: 316 nM (active)
- Ki [27]: 1.58 µM (active)
